In US20230107216A1, “PANTETHEINE DERIVATIVES AND USES THEREOF” (Comet Therapeutics, Inc., priority 2018, published 2023):
Like-named read-outs stand apart in the source and are kept apart here.

Tested on: Methylmalonic Acidemia (MMA) primary fibroblasts Tsi 5224
Test: Mitochondrial respiration, XFe96 Extracellular Flux Analyzer (OCR/ECAR), MMA fibroblasts Tsi 5224;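 for Increase in Maximal Respiratory Capacity AUC: relative to vehicle DMSO control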
Assay type: cell-based
Settings: Homo sapiens, Fibroblast
Summary of the method: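 Primary fibroblasts (20000 cells/well) were held 24 h in supplemented DMEM before Seahorse OCR/ECAR profiling. Compounds at 10 to 50 μM or 0.1% DMSO were injected after baseline, then oligomycin 1 μg/ml, FCCP, and rotenone/antimycin A 0.5 μM. Values were normalized to Hoechst nuclear counts, baselined to pre-compound, and expressed relative to vehicle.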

[1] = MMA Tsi 5224, assay condition A (10 mM glucose, 2 mM L-glutamine, 1 mM pyruvate, 10% FBS), read-out: Increase in Maximal Respiratory Capacity AUC
[2] = MMA Tsi 5224, assay condition D (1 mM glucose, 10% FBS), read-out: Increase in Maximal Respiratory Capacity AUC
[3] = MMA Tsi 5224, assay condition D (1 mM glucose, 10% FBS), read-out: Increase in Spare Capacity AUC

## CC(C)(CO)[C@@H](O)C(=O)NCCC(=O)NCCSC(=O)CCC(=O)O [Compound 1, (R)-4-((2-(3-(2,4-dihydroxy-3,3-dimethylbutanamido)propanamido)ethyl)thio)-4-oxobutanoic acid]
[1]
  activation at 10 µM: ≥ 10%
MMA Tsi 5224, assay condition B (1 mM glucose, 2 mM L-glutamine, 1 mM pyruvate, 10% FBS), read-out: Increase in Maximal Respiratory Capacity AUC
  activation at 10 µM: ≥ 10%

## COC(=O)CCC(=O)SCCNC(=O)CCNC(=O)[C@H](O)C(C)(C)CO [Compound 4, Methyl (R)-4-((2-(3-(2,4-dihydroxy-3,3-dimethylbutanamido)propanamido)ethyl)thio)-4-oxobutanoate]
[1]
  activation at 10 µM: ≥ 10%
[2]
  activation at 10 µM: ≥ 10%
[3]
  activation at 10 µM: ≥ 10%

## CC(C)=CC(=O)SCCNC(=O)CCNC(=O)[C@H](O)C(C)(C)CO [Compound 37, S-2-{3-[(R)-2,4-dihydroxy-3,3-dimethylbutyrylamino]propionylamino}ethyl 3-methyl-2-butenethioate]
[2]
  activation at 10 µM: ≥ 10%

## C[C@@H](O)CC(=O)SCCNC(=O)CCNC(=O)[C@H](O)C(C)(C)CO [Compound 38, S-2-{3-[(R)-2,4-dihydroxy-3,3-dimethylbutyrylamino]propionylamino} ethyl (R)-3-hydroxybutanethioate]
[2]
  activation at 10 µM: ≥ 10%

## CC(C)(CO)[C@@H](O)C(=O)NCCC(=O)NCCSC(=O)CC(O)C(=O)O (stereo partly drawn) [Compound 39]
[1]
  activation at 10 µM: ≥ 10%

## C[C@@H](O)CC(=O)CC(=O)SCCNC(=O)CCNC(=O)[C@H](O)C(C)(C)CO [Compound 42, (2R)-2,4-dihydroxy-N-[2-[(2-[[(5R)-5-hydroxy-3-oxohexanoyl]sulfanyl]ethyl)carbamoyl]ethyl]-3,3-dimethylbutanamide]
[1]
  activation at 10 µM: ≥ 10%

## COC(=O)/C=C/C(=O)SCCNC(=O)CCNC(=O)[C@H](O)C(C)(C)COP(=O)(O)O [Compound 73, methyl (R,E)-4-((2-(3-(2-hydroxy-3,3-dimethyl-4-(phosphonooxy)butanamido)propanamido)ethyl)thio)-4-oxobut-2-enoate]
[2]
  activation at 10 µM: ≥ 10%

## C/C=C/C(=O)SCCNC(=O)CCNC(=O)[C@H](O)C(C)(C)COP(=O)(O)O [Compound 82, (R)—S-(2-(3-(2-hydroxy-3,3-dimethyl-4-(phosphonooxy)butanamido)propanamido)ethyl) (E)-but-2-enethioate]
[2]
  activation at 10 µM: ≥ 10%

## CCC(=O)CC(=O)SCCNC(=O)CCNC(=O)[C@H](O)C(C)(C)CO [Compound 382, (2R)-2,4-dihydroxy-3,3-dimethyl-N-[2-([2-[(3-oxopentanoyl)sulfanyl]ethyl]carbamoyl)ethyl]butanamide]
[1]
  activation at 10 µM: ≥ 10%

## CC(O)CC(O)CC(=O)SCCNC(=O)CCNC(=O)[C@H](O)C(C)(C)CO (stereo partly drawn) [Compound 400]
[2]
  activation at 10 µM: ≥ 10%

## COC(=O)CC(C(C)=O)C(=O)SCCNC(=O)CCNC(=O)[C@H](O)C(C)(C)CO (stereo partly drawn) [Compound 410]
[2]
  activation at 10 µM: ≥ 10%

## COC(=O)CC[C@H](N)C(=O)SCCNC(=O)CCNC(=O)[C@H](O)C(C)(C)CO [Compound 411]
[2]
  activation at 10 µM: ≥ 10%
[3]
  activation at 10 µM: ≥ 10%

## CC(C)(CO)[C@@H](O)C(=O)NCCC(=O)NCCSC(=O)C1CCC(=O)N1 (stereo partly drawn) [Compound 1227, S-2-{3-[(R)-2,4-dihydroxy-3,3-dimethylbutyrylamino]propionylamino}ethyl 5-oxo-2-pyrrolidinecarbothioate]
[2]
  activation at 10 µM: ≥ 10%
[3]
  activation at 10 µM: ≥ 10%

## CC(C)C(=O)CC(=O)SCCNC(=O)CCNC(=O)[C@H](O)C(C)(C)CO [Compound 1239, (R)—S-(2-(3-(2,4-dihydroxy-3,3-dimethylbutanamido)propanamido)ethyl) 4-methyl-3-oxopentanethioate]
[2]
  activation at 10 µM: ≥ 10%

## CCC(C)C(=O)CC(=O)SCCNC(=O)CCNC(=O)[C@H](O)C(C)(C)CO (stereo partly drawn) [Compound 1240, S-(2-(3-((R)-2,4-dihydroxy-3,3-dimethylbutanamido)propanamido)ethyl) 4-methyl-3-oxohexanethioate]
[1]
  activation at 10 µM: ≥ 10%
[2]
  activation at 10 µM: ≥ 10%

## CC(=O)SCCNC(=O)CCNC(=O)[C@H](O)C(C)(C)COC(=O)CCC(=O)O [Compound 1242, (R)-12-hydroxy-13,13-dimethyl-2,7,11,16-tetraoxo-15-oxa-3-thia-6,10-diazanonadecan-19-oic acid]
[2]
  activation at 10 µM: ≥ 10%

## C[C@H](CC(=O)SCCNC(=O)CCNC(=O)[C@H](O)C(C)(C)CO)OC(=O)CCC(=O)O [Compound 1243, 4-{[(2R)-4-[(2-{3-[(2R)-2,4-dihydroxy-3,3-dimethylbutanamido]propanamido}ethyl)sulfanyl]-4-oxobutan-2-yl]oxy}-4-oxobutanoic acid]
MMA Tsi 5224, assay condition A (10 mM glucose, 2 mM L-glutamine, 1 mM pyruvate, 10% FBS), read-out: Increase in Spare Capacity AUC
  activation at 10 µM: ≥ 10%

## CC(C(=O)SCCNC(=O)CCNC(=O)[C@H](O)C(C)(C)CO)[C@@H](C)O (stereo partly drawn) [Compound 1244, (2R)-2,4-dihydroxy-N-{2-[(2-{[(3R)-3-hydroxy-2-methylbutanoyl]sulfanyl}ethyl)carbamoyl]ethyl}-3,3-dimethylbutanamide]
[1]
  activation at 10 µM: ≥ 10%

## CC1(CC(=O)SCCNC(=O)CCNC(=O)[C@H](O)C(C)(C)CO)OCCO1 [Compound 1252, (R)—S-(2-(3-(2,4-dihydroxy-3,3-dimethylbutanamido)propanamido)ethyl)-2-(2-methyl-1,3-dioxolan-2-yl)ethanethioate]
[2]
  activation at 10 µM: ≥ 10%

## CC(C)(CO)[C@@H](OC(=O)CCC(=O)O)C(=O)NCCC(=O)NCCS [Compound 1311, (R)-4-((4-hydroxy-1-((3-((2-mercaptoethyl)amino)-3-oxopropyl)amino)-3,3-dimethyl-1-oxobutan-2-yl)oxy)-4-oxobutanoic acid]
[1]
  activation at 10 µM: ≥ 10%
[2]
  activation at 10 µM: ≥ 10%
